Assays:
[1] = target: T1, Estrogen receptor beta (Homo sapiens, UniProt Q92731); test: Agonist activity at human Gal4-ERbeta by reporter gene assay
[2] = target: T2, Estrogen receptor (Homo sapiens, UniProt P03372); test: Agonist activity at human Gal4-ERalpha by reporter gene assay
T2 sequence (P03372 whole entry): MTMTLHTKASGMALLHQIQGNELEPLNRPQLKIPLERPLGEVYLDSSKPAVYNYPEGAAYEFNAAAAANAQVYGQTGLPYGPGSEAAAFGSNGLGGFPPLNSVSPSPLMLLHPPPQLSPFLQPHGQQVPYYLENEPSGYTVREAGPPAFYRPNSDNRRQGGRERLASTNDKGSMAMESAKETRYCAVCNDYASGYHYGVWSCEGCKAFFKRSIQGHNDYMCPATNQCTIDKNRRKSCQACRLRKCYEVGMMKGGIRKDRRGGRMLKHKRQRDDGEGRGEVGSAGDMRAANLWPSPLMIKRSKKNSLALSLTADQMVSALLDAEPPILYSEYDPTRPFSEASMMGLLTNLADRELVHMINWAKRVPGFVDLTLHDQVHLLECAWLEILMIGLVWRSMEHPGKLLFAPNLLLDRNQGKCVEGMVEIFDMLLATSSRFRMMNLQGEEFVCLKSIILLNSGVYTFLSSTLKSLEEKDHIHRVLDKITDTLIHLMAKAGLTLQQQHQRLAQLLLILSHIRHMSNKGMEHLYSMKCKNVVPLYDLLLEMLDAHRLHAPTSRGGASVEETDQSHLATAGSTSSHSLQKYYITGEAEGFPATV

[3] = target: T3, Androgen receptor (Homo sapiens, UniProt P10275); test: Antagonist activity at human pSG5-AR assessed as inhibition of dihydrotestosterone-induced effect by reporter gene assay
T3 sequence (P10275 whole entry): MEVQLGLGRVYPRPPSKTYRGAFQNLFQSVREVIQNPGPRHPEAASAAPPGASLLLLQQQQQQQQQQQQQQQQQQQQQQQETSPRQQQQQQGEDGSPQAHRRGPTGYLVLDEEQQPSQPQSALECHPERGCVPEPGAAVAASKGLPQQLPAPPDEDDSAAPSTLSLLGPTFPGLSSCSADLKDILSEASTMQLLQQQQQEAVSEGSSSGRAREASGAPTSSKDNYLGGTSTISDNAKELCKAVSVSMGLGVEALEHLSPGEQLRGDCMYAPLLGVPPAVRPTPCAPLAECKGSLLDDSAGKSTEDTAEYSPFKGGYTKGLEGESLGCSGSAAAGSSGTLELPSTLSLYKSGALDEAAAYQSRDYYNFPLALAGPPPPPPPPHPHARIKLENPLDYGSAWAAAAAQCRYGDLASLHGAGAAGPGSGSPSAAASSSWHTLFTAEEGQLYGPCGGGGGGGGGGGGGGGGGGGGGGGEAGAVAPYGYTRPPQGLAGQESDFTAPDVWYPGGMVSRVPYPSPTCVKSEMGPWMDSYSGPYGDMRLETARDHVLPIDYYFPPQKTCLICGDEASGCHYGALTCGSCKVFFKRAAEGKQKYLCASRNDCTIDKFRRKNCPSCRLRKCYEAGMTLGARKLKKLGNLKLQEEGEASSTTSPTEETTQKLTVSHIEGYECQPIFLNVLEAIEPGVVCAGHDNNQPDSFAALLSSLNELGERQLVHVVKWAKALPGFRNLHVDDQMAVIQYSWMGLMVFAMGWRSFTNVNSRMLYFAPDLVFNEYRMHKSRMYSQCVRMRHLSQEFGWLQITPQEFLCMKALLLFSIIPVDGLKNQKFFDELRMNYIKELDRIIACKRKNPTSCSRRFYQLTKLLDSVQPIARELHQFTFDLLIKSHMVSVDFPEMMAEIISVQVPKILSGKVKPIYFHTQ

[4] = target: T1, Estrogen receptor beta; test: Antagonist activity at human Gal4-ERbeta assessed as inhibition of 17beta-estradiol-induced effect by reporter gene assay
[5] = target: T2, Estrogen receptor; test: Antagonist activity at human Gal4-ERalpha assessed as inhibition of 17beta-estradiol-induced effect by reporter gene assay
[6] = target: T4, Estrogen receptor (Homo sapiens) (UniProt P03372); test: Agonist activity at human Gal4-ERalpha at 10 uM by reporter gene assay relative to 17beta-estradiol
T4 sequence (whole entry): T2 sequence (P03372 whole entry)

[7] = target: T4, Estrogen receptor (Homo sapiens); settings: at 3 µM
Description: Antagonist activity at human Gal4-ERalpha assessed as inhibition of 17beta-estradiol-induced effect at 3 uM by reporter gene assay

[8] = target: T1, Estrogen receptor beta; settings: at 3 µM
Description: Antagonist activity at human Gal4-ERbeta assessed as inhibition of 17beta-estradiol-induced effect at 3 uM by reporter gene assay

T1 sequence (Q92731 whole entry, the tested form may be a part): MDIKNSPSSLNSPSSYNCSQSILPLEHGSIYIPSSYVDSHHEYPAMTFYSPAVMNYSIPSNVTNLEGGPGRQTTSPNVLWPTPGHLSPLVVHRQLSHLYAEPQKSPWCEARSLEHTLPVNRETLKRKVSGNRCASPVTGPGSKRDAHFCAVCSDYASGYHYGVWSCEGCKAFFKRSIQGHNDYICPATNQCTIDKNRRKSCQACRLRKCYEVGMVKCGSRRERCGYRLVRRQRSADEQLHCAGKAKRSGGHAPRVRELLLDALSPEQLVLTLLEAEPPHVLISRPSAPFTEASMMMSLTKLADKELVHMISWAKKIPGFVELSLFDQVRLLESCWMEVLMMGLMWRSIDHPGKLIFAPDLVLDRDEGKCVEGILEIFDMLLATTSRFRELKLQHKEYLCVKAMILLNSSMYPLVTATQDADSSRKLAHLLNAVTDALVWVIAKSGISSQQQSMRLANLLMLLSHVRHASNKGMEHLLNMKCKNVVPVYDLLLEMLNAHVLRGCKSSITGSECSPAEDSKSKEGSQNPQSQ

CCCc1cc(C(CC)(CC)c2ccc(O)c(CCC)c2)ccc1O
EC50 [1]: Not Active | EC50 [2]: Not Active

CCC(CC)(c1ccc(N)c(C)c1)c1ccc(O)c(C)c1
IC50 [3]: 5400 nM | IC50 ([4]; read-out: IC50): 43 nM | EC50 [1]: Not Active | IC50 [5]: 98 nM | EC50 [2]: Not Active

CCCCC(CCCC)(c1ccc(O)cc1)c1ccc(O)cc1
IC50 ([4]; read-out: IC50): 180 nM | EC50 [1]: Not Active | IC50 [5]: 79 nM | EC50 [2]: Not Active

CC[Si](CC)(c1ccc(O)c(C)c1)c1ccc(O)c(C)c1
IC50 [3]: 1900 nM | IC50 ([4]; read-out: IC50): 800 nM | EC50 [1]: Not Active | IC50 [5]: 72 nM | EC50 [2]: Not Active

Cc1cc(C2(c3ccc(O)c(C)c3)CCCC2)ccc1O
IC50 ([4]; read-out: IC50): 770 nM | EC50 [1]: Not Active | IC50 [5]: 84 nM | EC50 [2]: Not Active

CCCc1cc(C(CCC)(CCC)c2ccc(O)c(CCC)c2)ccc1O
EC50 [1]: Not Active | EC50 [2]: Not Active

CCCC(CCC)(c1ccc(O)cc1)c1ccc(O)cc1
IC50 ([4]; read-out: IC50): 2200 nM | IC50 [5]: 99 nM | EC50 [2]: Not Active

Oc1ccc(C2(c3ccc(O)cc3)CCCC2)cc1
IC50 ([4]; read-out: IC50): 270 nM | EC50 [1]: Not Active | IC50 [5]: 170 nM | EC50 [2]: Not Active

CCCC(CCC)(c1ccc(O)c(C)c1)c1ccc(O)c(C)c1
IC50 [3]: 25000 nM | IC50 ([4]; read-out: IC50): 140 nM | EC50 [1]: Not Active | IC50 [5]: 4.9 nM | EC50 [2]: Not Active

Cc1cc(C2(c3ccc(O)c(C)c3)CCCCC2)ccc1O
IC50 ([4]; read-out: IC50): 790 nM | EC50 [1]: Not Active | IC50 [5]: 230 nM | EC50 [2]: Not Active

Cc1cc(Cc2ccc(O)c(C)c2)ccc1O
IC50 [4]: Not Active | EC50 ([1]; read-out: EC50): 5500 nM | Activity [6]: 23% | inhibition [7]: 26%

CCC(CC)(c1ccc(O)c(C)c1)c1ccc(O)c(C)c1
IC50 [3]: 4500 nM | IC50 ([4]; read-out: IC50): 260 nM | IC50 [5]: 25 nM | EC50 [2]: Not Active

CC(C)(c1ccc(O)cc1)c1ccc(O)cc1 [BISPHENOL A]
IC50 [3]: 5900 nM | Activity [6]: 33% | inhibition [8]: 25% | inhibition [7]: 38%

CCCC[Si](CCCC)(c1ccc(O)c(C)c1)c1ccc(O)c(C)c1
IC50 [3]: 8200 nM | IC50 [4]: Not Active | EC50 [1]: Not Active | EC50 [2]: Not Active

Cc1cc(C(C)(C)c2ccc(O)c(C)c2)ccc1O
Activity [6]: 31%

Cc1cc(C(C)(C)c2ccc(O)cc2)ccc1O
Activity [6]: 26% | inhibition [8]: 26% | inhibition [7]: 48%

CCC(CC)(c1ccc(O)cc1)c1ccc(O)c(C)c1
IC50 ([4]; read-out: IC50): 380 nM | IC50 [5]: 110 nM | EC50 [2]: Not Active

CCc1cc(C(CC)(CC)c2ccc(O)c(CC)c2)ccc1O
IC50 ([4]; read-out: IC50): 1300 nM | EC50 [1]: Not Active | IC50 [5]: 230 nM | EC50 [2]: Not Active

CCC(CC)(c1ccc(O)cc1)c1ccc(O)cc1
IC50 ([4]; read-out: IC50): 93 nM | IC50 [5]: 86 nM | EC50 [2]: Not Active

CCCCC(CCCC)(c1ccc(O)c(CC)c1)c1ccc(O)c(CC)c1
IC50 ([4]; read-out: IC50): 4500 nM | EC50 [1]: Not Active | IC50 [5]: 2900 nM | EC50 [2]: Not Active

Oc1ccc(C2(c3ccc(O)cc3)CCCCC2)cc1
IC50 ([4]; read-out: IC50): 560 nM | EC50 [1]: Not Active | IC50 [5]: 520 nM | EC50 [2]: Not Active

Oc1ccc(Cc2ccc(O)cc2)cc1
EC50 ([1]; read-out: EC50): 1900 nM | EC50 ([2]; read-out: EC50): 910 nM | inhibition [8]: 24% | inhibition [7]: 35%

CCCCC(CCCC)(c1ccc(O)c(CCC)c1)c1ccc(O)c(CCC)c1
EC50 [1]: Not Active | EC50 [2]: Not Active

CCCCC(CCCC)(c1ccc(O)c(C)c1)c1ccc(O)c(C)c1
IC50 ([4]; read-out: IC50): 150 nM | EC50 [1]: Not Active | IC50 [5]: 14 nM | EC50 [2]: Not Active

CCCC(CCC)(c1ccc(O)c(CC)c1)c1ccc(O)c(CC)c1
IC50 ([4]; read-out: IC50): 2600 nM | EC50 [1]: Not Active | IC50 [5]: 490 nM | EC50 [2]: Not Active

CCC(CC)(c1cc(C)c(O)c(C)c1)c1cc(C)c(O)c(C)c1
IC50 ([4]; read-out: IC50): 300 nM | EC50 [1]: Not Active | IC50 [5]: 74 nM | EC50 [2]: Not Active

— ChEMBL document CHEMBL2401681 (Bioorg Med Chem Lett, 2013)
